Data published in patent US6787541B1, “Thieno-and furopyrimidine derivatives as A2A-receptor antagonists” (Vernalis Research Limited, priority 1999, dated 2004).
Where a name gives a salt, the structure may show the parent alone.

Target: T1, human adenosine A2A receptors expressed in HEK-293 cells (Homo sapiens, UniProt P29274)
T1 construct: expressed in transfected cells; host or cells: HEK-293 cells
Assay: Binding affinities at hA2A receptors, displacement of [3H]-CGS 21680

T1 sequence (P29274 whole entry): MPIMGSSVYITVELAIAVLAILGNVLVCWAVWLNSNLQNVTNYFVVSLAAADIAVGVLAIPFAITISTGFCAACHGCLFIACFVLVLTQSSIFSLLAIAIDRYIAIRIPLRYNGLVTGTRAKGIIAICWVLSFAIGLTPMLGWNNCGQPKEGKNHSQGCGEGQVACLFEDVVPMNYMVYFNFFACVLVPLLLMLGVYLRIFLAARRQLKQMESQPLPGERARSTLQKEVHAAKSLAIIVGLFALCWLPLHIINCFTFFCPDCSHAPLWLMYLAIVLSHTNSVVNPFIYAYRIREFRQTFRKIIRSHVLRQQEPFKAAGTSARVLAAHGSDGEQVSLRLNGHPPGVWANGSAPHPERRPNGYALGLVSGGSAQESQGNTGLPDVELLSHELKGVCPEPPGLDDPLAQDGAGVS

Row | Compound | Ki [µM]
1 | CC(CO)Nc1nc(C(=O)c2cccs2)c2sccc2n1 (racemic) [Example 89, (2RS)-2-(1-Hydroxy-2-propylamino)thieno[3,2-d]pyrimidin-4-yl 2-thienylmethanone] | 0.003
2 | O=C(c1cccs1)c1nc(NCC(O)CO)nc2ccsc12 (racemic) [Example 93, (2RS)-2-(2,3-Dihydroxypropylamino)thieno[3,2-d]pyrimidin-4-yl 2-thienylmethanone] | 0.007
3 | O=C(c1ccccc1Cl)c1nc(C(F)(F)F)nc2ccsc12 [Example 8, 2-Chlorophenyl 2-trifluoromethylthieno[3,2-d]pyrimidin-4-ylmethanone] | 0.586
4 | Cc1ccccc1C(=O)c1nc(C(F)(F)F)nc2ccsc12 [Example 11, 2-Methylphenyl 2-trifluoromethylthieno[3,2-d]pyrimidin-4-ylmethanone] | 0.33
5 | O=C(c1ccc(Cl)s1)c1nc(C(F)(F)F)nc2ccsc12 [Example 12, 5-Chloro-2-thienyl 2-trifluoromethylthieno[3,2-d]pyrimidin-4-ylmethanone] | 0.031
6 | NCCNc1nc(C(=O)c2cccs2)c2sccc2n1 [Example 55, 2-(2-Aminoethylamino)thieno[3,2-d]pyrimidin-4-yl 2-thienylmethanone dihydrochloride] | 0.078
7 | CNc1nc(C(=O)c2cccs2)c2sccc2n1 [Example 58, 2-Methylaminothieno[3,2-d]pyrimidin-4-yl thienylmethanone] | 0.015
8 | CN(C)CCNc1nc(C(=O)c2cccs2)c2sccc2n1 [Example 66, 2-(2-Dimethylaminoethylamino)thieno[3,2-d]pyrimidin-4-yl 2-thienylmethanone dihydrochloride] | 0.218
9 | CCCc1nc(C(O)c2cccs2)c2sccc2n1 (stereo not drawn) [Example 67, 2-n-Propyl-α-(2-thienyl)thieno[3,2-d]pyrimidine-4-methanol] | 0.469
10 | CN(C)c1nc(C(=O)c2cccs2)c2scc(-c3ccco3)c2n1 [Example 79, 2-Dimethylamino-7-(2-furyl)thieno[3,2-d]pyrimidin-4-yl 2-thienylmethanone] | 0.858
11 | CN(CCO)c1nc(C(=O)c2cccs2)c2sccc2n1 [Example 82, 2-(N-(2-Hydroxyethyl)-N-methylamino)thieno[3,2-d]pyrimidin-4-yl 2-thienylmethanone] | 0.029
12 | CN1CCN(c2nc(C(=O)c3cccs3)c3sccc3n2)CC1 [Example 83, 2-(4-Methylpiperazinyl)thieno[3,2-d]pyrimidin-4-yl 2-thienylmethanone] | 0.863
13 | CC(C)(C)OC(=O)N1CCN(c2nc(C(=O)c3cccs3)c3sccc3n2)CC1 [Example 84, Tert-butyl 4-(4-(2-thienylcarbonyl)thieno[3,2-d]pyrimidin-2-yl)piperazinecarboxylate] | 0.392
14 | C[C@@H](CO)Nc1nc(C(=O)c2cccs2)c2sccc2n1 [Example 101, (2S)-2-(1-Hydroxy-2-propylamino)thieno[3,2-d]pyrimidin-4-yl 2-thienylmethanone] | 0.007
15 | C[C@H](CO)Nc1nc(C(=O)c2cccs2)c2sccc2n1 [Example 102, (2R)-2-(1-Hydroxy-2-propylamino)thieno[3,2-d]pyrimidin-4-yl 2-thienylmethanone] | 0.002
16 | C[C@@H](O)CNc1nc(C(=O)c2cccs2)c2sccc2n1 [Example 103, (2R)-2-(2-Hydroxypropylamino)thieno[3,2-d]pyrimidin-4-yl 2-thienylmethanone] | 0.006
17 | O=C(c1cccs1)c1nc(NCCCn2ccnc2)nc2ccsc12 [Example 104, 2-(3-(1H-Imidazol-1-yl)propylamino)thieno[3,2-d]pyrimidin-4-yl 2-thienylmethanone] | 0.002
18 | O=C(c1cccs1)c1nc(NCCc2cnc[nH]2)nc2ccsc12 [Example 144, 2-(2-(1H-Imidazol-4-yl)ethylamino)thieno[3,2-d]pyrimdin-4-yl 2-thienylmethanone] | 0.005
19 | CC(C)CC(=O)NCCNc1nc(C(=O)c2cccs2)c2sccc2n1 [Example 150, 3-Methyl-N-(2-(4-(2-thienylcarbonyl)thieno[3,2-d]pyrimidin-2-yl)aminoethyl)butanamide] | 0.004
20 | O=C(c1cccs1)c1nc(NCCNC(=O)C2CCCCC2)nc2ccsc12 [Example 151, N-(2-(4-(2-Thienylcarbonyl)thieno[3,2-d]pyrimidin-2-yl)aminoethyl)cyclohexylcarboxamide] | 0.007
21 | COC(=O)NCCNc1nc(C(=O)c2cccs2)c2sccc2n1 [Example 155, Methyl (2-(4-(2-thienylcarbonyl)thieno[3,2-d]pyrimidin-2-yl)aminoethyl)carbamate] | 0.004
22 | O=C(NCCNc1nc(C(=O)c2cccs2)c2sccc2n1)OCCCl [Example 158, 2-Chloroethyl (2-(4-(2-thienylcarbonyl)thieno[3,2-d]pyrimidin-2-yl)aminoethyl)carbamate] | 0.006
23 | C=CCNC(=O)NCCNc1nc(C(=O)c2cccs2)c2sccc2n1 [Example 159, N-Allyl-N′-(2-(4-(2-thienylcarbonyl)thieno[3,2-d]pyrimidin-2-yl)aminoethyl)urea] | 0.008
24 | α-(2-Pyridyl-2-trifluoromethylthieno[3,2- d]pyrimidine-4-acetonitrile [Example 18] | 0.346
25 | α-(3-Thienyl-2-trifluoromethylthieno[3,2- d]pyrimidine-4-acetonitrile [Example 17] | 0.895

System: not given
Assay: not given

Row | Compound | melting point
26 | O=C(c1ccccc1Cl)c1nc(C(F)(F)F)nc2ccsc12 [Example 8, 2-Chlorophenyl 2-trifluoromethylthieno[3,2-d]pyrimidin-4-ylmethanone] | 122 to 123 °C
27 | Cc1ccccc1C(=O)c1nc(C(F)(F)F)nc2ccsc12 [Example 11, 2-Methylphenyl 2-trifluoromethylthieno[3,2-d]pyrimidin-4-ylmethanone] | 116 to 118 °C
28 | O=C(c1ccc(Cl)s1)c1nc(C(F)(F)F)nc2ccsc12 [Example 12, 5-Chloro-2-thienyl 2-trifluoromethylthieno[3,2-d]pyrimidin-4-ylmethanone] | 165 to 167 °C
29 | O=C(c1cccs1)c1nc(NCc2ccco2)nc2ccsc12 [Example 96, 2-(2-Furylmethylamino)thieno[3,2-d]primidin-4-yl 2-thienylmethanone] | > 140 °C (dec.)
30 | CN(C)c1nc(C(=O)c2ccco2)c2sccc2n1 [Example 105, 2-Dimethylaminothieno[3,2-d]pyrimidin-4-yl 2-furylmethanone] | 210 to 212 °C
31 | O=C(c1cccnc1)c1nc(NCCO)nc2ccsc12 [Example 106, 2-(2-Hydroxyethylamino)thieno[3,2-d]pyrimidin-4-yl 3-pyridylmethanone] | 161 to 163 °C
32 | O=C(c1cccs1)c1nc(N2CCCC2)nc2ccsc12 [Example 109, 2-(Pyrrolidin-1-yl)thieno[3,2-d]pyrimidin-4-yl 2-thienylmethanone] | 229.1 to 229.4 °C
33 | COC(=O)[C@@H]1CCCN1c1nc(C(=O)c2cccs2)c2sccc2n1 [Example 115, (2S)-N-(4-(2-Thienylcarbonyl)thieno[3,2-d]pyrimidin-2-yl)proline methyl ester] | 155.9 to 156.3 °C
34 | Cc1ccsc1C(=O)c1nc(N(C)C)nc2ccsc12 [Example 117, 2-Dimethylaminothieno[3,2-d]pyrimidin-4-yl 3-methyl-2-thienylmethanone] | 165.1 to 165.7 °C
35 | CC(C)(CO)Nc1nc(C(=O)c2cccs2)c2sccc2n1 [Example 119, 2-(1-Hydroxy-2-methyl-2-propylamino)thieno[3,2-d]pyrimidin-4-yl 2-thienylmethanone] | 126.4 to 127.1 °C
36 | CN(CCN)c1nc(C(=O)c2cccs2)c2sccc2n1 [Example 120, 2-(N-(2-Aminoethyl)-N-methylamino)thieno[3,2-d]pyrimidin-4-yl 2-thienylmethanone] | 151.6 to 152.4 °C
37 | O=C(c1cccs1)c1nc(N2CCC[C@@H]2C(=O)O)nc2ccsc12 [Example 121, (2R)-N-(4-(2-Thienylcarbonyl)thieno[3,2-d]pyrimidin-2-yl)proline] | > 131 °C (dec.)
38 | CCOC(=O)c1nc(C(=O)c2cccs2)c2sccc2n1 [Example 122, Ethyl 4-(2-thienylcarbonyl)thieno[3,2-d]pyrimidin-2-carboxylate] | 185.7 to 186.2 °C
39 | COC(=O)CNc1nc(C(=O)c2cccs2)c2sccc2n1 [Example 123, Methyl (4-(2-thienylcarbonyl)thieno[3,2-d]pyrimidin-2-ylamino)acetate] | 144.6 to 145.2 °C
40 | NC(=O)CNc1nc(C(=O)c2cccs2)c2sccc2n1 [Example 125, (4-(2-Thienylcarbonyl)thieno[3,2-d]pyrimidin-2-ylamino)acetamide] | 232.1 to 233.7 °C
41 | COC(=O)c1nc(C(=O)c2cccs2)c2sccc2n1 [Example 126, Methyl 4-(2-thienylcarbonyl)thieno[3,2-d]pyrimidin-2-carboxylate] | 232.8 to 233 °C
42 | CS(=O)(=O)NNc1nc(C(=O)c2cccs2)c2sccc2n1 [Example 128, Methanesulphonic acid 2-(4-(2-thienylcarbonyl)thieno[3,2-d]pyrimidin-2-yl)hydrazide] | 242.1 to 242.7 °C
43 | Cc1ccsc1C(=O)c1nc(N2CCC[C@@H]2CO)nc2ccsc12 [Example 129, (2R)-2-(2-Hydroxymethylpyrrolidin-1-yl)thieno[3,2-d]pyrimidin-4-yl 3-methyl-2-thienylmethanone] | 96.2 to 96.9 °C
44 | CC(=O)NNc1nc(C(=O)c2cccs2)c2sccc2n1 [Example 130, Acetic acid 2-(4-(2-thienylcarbonyl)thieno[3,2-d]pyrimidin-2-yl)hydrazide] | 258.3 to 259 °C
45 | C=CCNC(=O)NNc1nc(C(=O)c2cccs2)c2sccc2n1 [Example 131, N-Allyl-2-(4-(2-thienylcarbonyl)thieno[3,2-d]pyrimidin-2-yl)hydrazinecarboxamide] | 252.8 to 253.3 °C
46 | Cc1ccsc1C(=O)c1nc(NCCCn2ccnc2)nc2ccsc12 [Example 132, 2-(3-(1H-imidazol-1-yl)propylamino)thieno[3,2-d]pyrimidin-4-yl 3-methyl-2-thienylmethanone] | 138.1 to 138.7 °C
47 | CN(C)CCNC(=O)c1nc(C(=O)c2cccs2)c2sccc2n1 [Example 134, N-(2-Dimethylaminoethyl)-4-(2-thienylcarbonyl)thieno[3,2-d]pyrimidin-2-carboxamide] | 143.6 to 144.7 °C
48 | CN(C)C(=O)c1nc(C(=O)c2cccs2)c2sccc2n1 [Example 136, N,N-Dimethyl-4-(2-thienylcarbonyl)thieno[3,2-d]pyrimidin-2-carboxamide] | 173.1 to 174 °C
